Measurements from the kinase profiling compilation of Christmann-Franck et al. (2016).

Legend:
Assay in all cases: KINOMEscan competition binding
Conditions in all cases: compound 10.0 µM
[1] = biological target: CDKL1 (human) (UniProt Q00532)
[2] = biological target: PTK2 (human) (UniProt Q05397)
[3] = biological target: RPS6KA6 KD1 (human) (UniProt Q9UK32)
[4] = biological target: BMPR1B (human) (UniProt O00238)
[5] = biological target: PKMYT1 (human) (UniProt Q99640)
[6] = biological target: MAP3K7 (human) (UniProt O43318)
[7] = biological target: DCLK1 (human) (UniProt O15075)
[8] = biological target: IGF1R (human) (UniProt P08069)
[9] = biological target: STK3 (human) (UniProt Q13188)
[10] = biological target: CAMK1D (human) (UniProt Q8IU85)
[11] = biological target: MARK2 (human) (UniProt Q7KZI7)
[12] = biological target: CDK18 (human) (UniProt Q07002)
[13] = biological target: AURKC (human) (UniProt Q9UQB9)
[14] = biological target: CAMK4 (human) (UniProt Q16566)
[15] = biological target: TAOK2 (human) (UniProt Q9UL54)
[16] = biological target: PIM3 (human) (UniProt Q86V86)
[17] = biological target: STK32C (human) (UniProt Q86UX6)
[18] = biological target: TIE1 (human) (UniProt P35590)
[19] = biological target: IKBKE (human) (UniProt Q14164)
[20] = biological target: TXK (human) (UniProt P42681)
[21] = biological target: PLK4 (human) (UniProt O00444)
[22] = biological target: CLK1 (human) (UniProt P49759)
[23] = biological target: CDK15 (human) (UniProt Q96Q40)
[24] = biological target: RPS6KA6 KD2 (human) (UniProt Q9UK32)
[25] = biological target: ULK2 (human) (UniProt Q8IYT8)
[26] = biological target: MINK1 (human) (UniProt Q8N4C8)
[27] = biological target: PRKD2 (human) (UniProt Q9BZL6)
[28] = biological target: TYK2 JH1 catalytic (human) (UniProt P29597)
[29] = biological target: NEK5 (human) (UniProt Q6P3R8)
[30] = biological target: CAMK2B (human) (UniProt Q13554)
[31] = biological target: CDK9 (human) (UniProt P50750)
[32] = biological target: SLK (human) (UniProt Q9H2G2)
[33] = biological target: JAK1 JH1 catalytic (human) (UniProt P23458)
[34] = biological target: FGR (human) (UniProt P09769)
[35] = biological target: MAP2K1 (human) (UniProt Q02750)
[36] = biological target: NEK4 (human) (UniProt P51957)
[37] = biological target: CAMK1G (human) (UniProt Q96NX5)
[38] = biological target: SIK3 (human) (UniProt Q9Y2K2)
[39] = biological target: CLK4 (human) (UniProt Q9HAZ1)
[40] = biological target: PI4KB (human) (UniProt Q9UBF8)

Chain of MARK2 (human) (Q7KZI7 whole entry, looked up): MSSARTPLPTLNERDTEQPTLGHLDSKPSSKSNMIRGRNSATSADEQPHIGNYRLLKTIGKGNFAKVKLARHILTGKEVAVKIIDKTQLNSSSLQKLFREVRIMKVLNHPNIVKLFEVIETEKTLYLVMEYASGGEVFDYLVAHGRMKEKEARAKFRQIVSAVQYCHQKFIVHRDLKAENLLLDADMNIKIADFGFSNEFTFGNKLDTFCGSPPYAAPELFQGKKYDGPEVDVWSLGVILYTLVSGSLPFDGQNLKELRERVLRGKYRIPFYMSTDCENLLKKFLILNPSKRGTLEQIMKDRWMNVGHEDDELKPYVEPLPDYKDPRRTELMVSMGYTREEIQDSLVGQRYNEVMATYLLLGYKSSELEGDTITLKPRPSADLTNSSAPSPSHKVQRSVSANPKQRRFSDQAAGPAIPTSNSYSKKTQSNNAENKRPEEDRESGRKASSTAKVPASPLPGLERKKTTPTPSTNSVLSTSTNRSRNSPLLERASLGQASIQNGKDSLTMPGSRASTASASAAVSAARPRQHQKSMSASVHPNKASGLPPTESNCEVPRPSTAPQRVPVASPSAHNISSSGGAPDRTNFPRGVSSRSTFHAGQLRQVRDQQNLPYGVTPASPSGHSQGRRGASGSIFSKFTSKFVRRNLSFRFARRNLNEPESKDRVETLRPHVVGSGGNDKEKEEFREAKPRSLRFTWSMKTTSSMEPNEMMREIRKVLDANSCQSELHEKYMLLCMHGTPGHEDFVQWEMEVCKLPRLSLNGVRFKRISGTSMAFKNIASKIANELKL
Chain of MAP3K7 (human) (O43318 whole entry, looked up): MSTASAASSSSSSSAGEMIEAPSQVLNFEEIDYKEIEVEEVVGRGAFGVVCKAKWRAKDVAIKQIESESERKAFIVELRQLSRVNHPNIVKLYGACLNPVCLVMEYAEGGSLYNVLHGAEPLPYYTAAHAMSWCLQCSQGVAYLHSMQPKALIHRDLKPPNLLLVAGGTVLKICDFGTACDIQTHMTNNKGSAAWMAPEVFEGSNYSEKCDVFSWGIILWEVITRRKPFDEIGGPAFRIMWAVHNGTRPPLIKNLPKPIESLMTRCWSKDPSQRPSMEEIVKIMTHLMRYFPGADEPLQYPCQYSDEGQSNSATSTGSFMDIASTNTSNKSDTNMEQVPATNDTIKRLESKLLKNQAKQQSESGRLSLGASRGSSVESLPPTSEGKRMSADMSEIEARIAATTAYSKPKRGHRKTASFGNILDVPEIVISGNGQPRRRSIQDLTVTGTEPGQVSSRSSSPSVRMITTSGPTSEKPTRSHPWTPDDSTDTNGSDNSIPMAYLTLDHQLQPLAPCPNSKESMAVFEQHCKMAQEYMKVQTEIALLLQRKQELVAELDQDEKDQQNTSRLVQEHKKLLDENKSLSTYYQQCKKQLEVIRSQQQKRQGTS
Chain of CAMK4 (human) (Q16566 whole entry, looked up): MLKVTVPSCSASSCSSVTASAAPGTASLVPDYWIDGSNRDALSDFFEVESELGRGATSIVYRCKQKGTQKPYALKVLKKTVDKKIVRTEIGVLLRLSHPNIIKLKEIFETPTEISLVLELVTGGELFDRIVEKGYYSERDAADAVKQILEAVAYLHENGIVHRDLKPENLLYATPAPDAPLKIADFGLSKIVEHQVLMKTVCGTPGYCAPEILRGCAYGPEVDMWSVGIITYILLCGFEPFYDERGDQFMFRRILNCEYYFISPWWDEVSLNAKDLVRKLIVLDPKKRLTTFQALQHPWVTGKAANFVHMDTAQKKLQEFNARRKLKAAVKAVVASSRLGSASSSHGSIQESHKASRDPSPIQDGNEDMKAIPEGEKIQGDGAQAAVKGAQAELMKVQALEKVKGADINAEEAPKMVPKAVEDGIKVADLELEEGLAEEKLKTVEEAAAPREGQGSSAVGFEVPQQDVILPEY
Chain of PRKD2 (human) (Q9BZL6 whole entry, looked up): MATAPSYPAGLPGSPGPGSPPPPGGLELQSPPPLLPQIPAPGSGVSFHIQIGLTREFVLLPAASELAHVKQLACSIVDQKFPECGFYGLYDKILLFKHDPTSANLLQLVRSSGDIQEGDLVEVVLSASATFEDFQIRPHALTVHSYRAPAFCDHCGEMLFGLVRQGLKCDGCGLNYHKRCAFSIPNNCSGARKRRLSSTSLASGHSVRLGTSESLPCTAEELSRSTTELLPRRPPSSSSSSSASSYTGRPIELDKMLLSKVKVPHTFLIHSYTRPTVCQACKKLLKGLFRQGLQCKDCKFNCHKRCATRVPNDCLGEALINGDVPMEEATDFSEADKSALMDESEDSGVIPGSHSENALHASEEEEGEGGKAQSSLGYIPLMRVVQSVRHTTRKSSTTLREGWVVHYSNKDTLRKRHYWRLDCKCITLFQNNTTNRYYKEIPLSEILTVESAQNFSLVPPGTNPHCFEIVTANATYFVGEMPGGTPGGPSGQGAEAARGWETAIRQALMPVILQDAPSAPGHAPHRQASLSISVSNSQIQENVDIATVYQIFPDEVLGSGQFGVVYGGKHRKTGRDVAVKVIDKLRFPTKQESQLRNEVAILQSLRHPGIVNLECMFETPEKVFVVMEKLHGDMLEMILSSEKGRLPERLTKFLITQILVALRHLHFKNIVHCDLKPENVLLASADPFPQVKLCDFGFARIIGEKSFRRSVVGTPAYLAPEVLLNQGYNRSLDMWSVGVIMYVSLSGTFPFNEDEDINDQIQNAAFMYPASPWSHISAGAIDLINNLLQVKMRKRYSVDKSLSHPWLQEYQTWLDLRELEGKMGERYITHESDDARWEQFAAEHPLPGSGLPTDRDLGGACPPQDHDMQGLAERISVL
Chain of IKBKE (human) (Q14164 whole entry, looked up): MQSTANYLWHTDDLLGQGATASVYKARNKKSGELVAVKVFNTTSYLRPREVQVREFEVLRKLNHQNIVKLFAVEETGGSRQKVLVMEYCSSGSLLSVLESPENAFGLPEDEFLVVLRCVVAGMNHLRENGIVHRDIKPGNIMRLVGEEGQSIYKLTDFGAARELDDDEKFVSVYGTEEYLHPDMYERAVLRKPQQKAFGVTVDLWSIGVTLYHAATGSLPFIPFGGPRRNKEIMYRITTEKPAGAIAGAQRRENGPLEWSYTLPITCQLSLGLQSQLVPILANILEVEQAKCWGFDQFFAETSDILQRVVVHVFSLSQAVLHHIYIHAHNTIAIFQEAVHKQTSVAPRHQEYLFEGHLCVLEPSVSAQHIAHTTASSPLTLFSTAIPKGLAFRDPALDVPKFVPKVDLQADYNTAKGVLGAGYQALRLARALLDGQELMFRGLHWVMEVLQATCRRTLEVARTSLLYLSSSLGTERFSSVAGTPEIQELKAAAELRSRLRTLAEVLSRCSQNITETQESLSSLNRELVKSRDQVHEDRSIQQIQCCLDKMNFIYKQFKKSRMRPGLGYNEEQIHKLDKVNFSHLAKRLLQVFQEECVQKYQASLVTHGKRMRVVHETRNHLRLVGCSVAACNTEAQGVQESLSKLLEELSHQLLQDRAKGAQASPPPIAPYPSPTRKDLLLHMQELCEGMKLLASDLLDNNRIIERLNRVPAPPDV
Chain of ULK2 (human) (Q8IYT8 whole entry, looked up): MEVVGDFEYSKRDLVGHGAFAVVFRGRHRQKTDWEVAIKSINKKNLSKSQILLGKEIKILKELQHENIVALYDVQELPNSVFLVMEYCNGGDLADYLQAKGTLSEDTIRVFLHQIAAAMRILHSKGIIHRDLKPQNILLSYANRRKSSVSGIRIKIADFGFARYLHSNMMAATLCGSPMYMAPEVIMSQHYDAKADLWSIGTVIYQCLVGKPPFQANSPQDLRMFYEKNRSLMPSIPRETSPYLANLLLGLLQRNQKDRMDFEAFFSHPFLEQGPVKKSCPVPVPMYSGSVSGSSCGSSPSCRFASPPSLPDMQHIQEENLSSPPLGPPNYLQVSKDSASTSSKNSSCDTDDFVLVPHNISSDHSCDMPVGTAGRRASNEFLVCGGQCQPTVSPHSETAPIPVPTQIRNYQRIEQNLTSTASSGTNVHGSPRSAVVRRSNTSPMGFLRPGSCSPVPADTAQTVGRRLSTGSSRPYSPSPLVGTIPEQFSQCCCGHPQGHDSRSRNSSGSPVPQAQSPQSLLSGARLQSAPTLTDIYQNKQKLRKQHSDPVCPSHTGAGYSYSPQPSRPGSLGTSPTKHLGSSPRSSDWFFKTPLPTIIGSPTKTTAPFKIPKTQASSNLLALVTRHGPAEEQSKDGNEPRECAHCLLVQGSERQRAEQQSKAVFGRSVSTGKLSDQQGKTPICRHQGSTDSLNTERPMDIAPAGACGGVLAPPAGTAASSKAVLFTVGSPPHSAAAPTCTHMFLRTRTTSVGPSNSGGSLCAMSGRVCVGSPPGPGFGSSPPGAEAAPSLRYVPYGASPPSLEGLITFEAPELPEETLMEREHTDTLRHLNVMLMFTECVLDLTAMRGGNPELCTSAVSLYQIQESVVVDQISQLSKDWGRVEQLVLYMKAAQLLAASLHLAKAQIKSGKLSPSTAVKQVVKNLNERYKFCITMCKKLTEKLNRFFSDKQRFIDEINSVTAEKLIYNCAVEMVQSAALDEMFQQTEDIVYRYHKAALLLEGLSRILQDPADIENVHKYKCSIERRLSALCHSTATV
Chain of CLK1 (human) (P49759 whole entry, looked up): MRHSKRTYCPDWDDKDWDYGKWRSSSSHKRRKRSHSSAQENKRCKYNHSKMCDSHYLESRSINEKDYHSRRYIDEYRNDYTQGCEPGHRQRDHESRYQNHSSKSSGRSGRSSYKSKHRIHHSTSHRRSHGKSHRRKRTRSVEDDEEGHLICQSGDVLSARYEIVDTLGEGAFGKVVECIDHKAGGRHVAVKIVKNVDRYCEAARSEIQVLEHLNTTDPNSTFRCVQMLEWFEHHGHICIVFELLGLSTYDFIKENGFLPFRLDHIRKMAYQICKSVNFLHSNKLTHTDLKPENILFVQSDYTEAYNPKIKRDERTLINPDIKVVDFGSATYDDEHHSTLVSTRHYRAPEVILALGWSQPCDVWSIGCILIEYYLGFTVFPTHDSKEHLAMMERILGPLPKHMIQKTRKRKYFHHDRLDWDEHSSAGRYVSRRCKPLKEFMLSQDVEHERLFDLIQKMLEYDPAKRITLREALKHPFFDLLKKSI

| Structure (SMILES) | kinase still bound, per cent of control [1] [%] | kinase still bound, per cent of control [2] [%] | kinase still bound, per cent of control [3] [%] | kinase still bound, per cent of control [4] [%] | kinase still bound, per cent of control [5] [%] | kinase still bound, per cent of control [6] [%] | kinase still bound, per cent of control [7] [%] | kinase still bound, per cent of control [8] [%] | kinase still bound, per cent of control [9] [%] | kinase still bound, per cent of control [10] [%] | kinase still bound, per cent of control [11] [%] | kinase still bound, per cent of control [12] [%] | kinase still bound, per cent of control [13] [%] | kinase still bound, per cent of control [14] [%] | kinase still bound, per cent of control [15] [%] | kinase still bound, per cent of control [16] [%] | kinase still bound, per cent of control [17] [%] | kinase still bound, per cent of control [19] [%] | kinase still bound, per cent of control [20] [%] | kinase still bound, per cent of control [23] [%] | further results |
| --- | --- | --- | --- | --- | --- | --- | --- | --- | --- | --- | --- | --- | --- | --- | --- | --- | --- | --- | --- | --- | --- |
| CC1=C(C(=O)Nc2cc3cn[nH]c3cc2F)C(c2ccc(C(F)(F)F)cc2)CC(=O)N1 (stereo unspecified) | 78 | 79 | 42 | 65 | 100 | 78 | 65 | 98 | 63 | 97 | 99 | 100 | 33 | 100 | 96 | 92 | 48 | 77 | 83 | 84 | kinase still bound, per cent of control [18]: 75%; kinase still bound, per cent of control [21]: 86%; kinase still bound, per cent of control [22]: 72%; kinase still bound, per cent of control [24]: 85%; kinase still bound, per cent of control [25]: 85%; kinase still bound, per cent of control [26]: 71%; kinase still bound, per cent of control [27]: 76%; kinase still bound, per cent of control [28]: 20%; kinase still bound, per cent of control [29]: 90%; kinase still bound, per cent of control [30]: 94%; kinase still bound, per cent of control [31]: 96%; kinase still bound, per cent of control [32]: 100%; kinase still bound, per cent of control [33]: 28%; kinase still bound, per cent of control [34]: 78%; kinase still bound, per cent of control [35]: 73%; kinase still bound, per cent of control [36]: 85%; kinase still bound, per cent of control [37]: 81%; kinase still bound, per cent of control [38]: 94%; kinase still bound, per cent of control [39]: 100%; kinase still bound, per cent of control [40]: 100% |
| CCCS(=O)(=O)Nc1ccc(F)c(C(=O)c2c[nH]c3ncc(Cl)cc23)c1F | 93 | 51 | 80 | 74 | 100 | 51 | 52 | 91 | 21 | 78 | 92 | 73 | 100 | 100 | 43 | 65 | 86 | 91 | 69 | 100 | kinase still bound, per cent of control [18]: 61%; kinase still bound, per cent of control [21]: 27%; kinase still bound, per cent of control [24]: 98%; kinase still bound, per cent of control [25]: 60%; kinase still bound, per cent of control [26]: 28%; kinase still bound, per cent of control [27]: 100%; kinase still bound, per cent of control [28]: 24%; kinase still bound, per cent of control [29]: 100%; kinase still bound, per cent of control [30]: 63%; kinase still bound, per cent of control [31]: 86%; kinase still bound, per cent of control [32]: 15%; kinase still bound, per cent of control [33]: 77%; kinase still bound, per cent of control [34]: 8.4%; kinase still bound, per cent of control [35]: 0.8%; kinase still bound, per cent of control [36]: 71%; kinase still bound, per cent of control [37]: 76%; kinase still bound, per cent of control [38]: 100%; kinase still bound, per cent of control [39]: 51%; kinase still bound, per cent of control [40]: 25% |
| CCc1nc(-c2cccc(C)c2)c(-c2ccnc(NC(=O)c3ccccc3)c2)s1 | 100 | 96 | 94 | 100 | 64 | 64 | 96 | 100 | 97 | 100 | 100 | 96 | 90 | 99 | 86 | 86 | 35 | 100 | 75 | 95 | kinase still bound, per cent of control [18]: 96%; kinase still bound, per cent of control [21]: 100%; kinase still bound, per cent of control [22]: 92%; kinase still bound, per cent of control [24]: 4.3%; kinase still bound, per cent of control [25]: 100%; kinase still bound, per cent of control [26]: 8.4%; kinase still bound, per cent of control [27]: 46%; kinase still bound, per cent of control [28]: 100%; kinase still bound, per cent of control [29]: 100%; kinase still bound, per cent of control [31]: 95%; kinase still bound, per cent of control [32]: 41%; kinase still bound, per cent of control [33]: 100%; kinase still bound, per cent of control [34]: 52%; kinase still bound, per cent of control [35]: 86%; kinase still bound, per cent of control [36]: 100%; kinase still bound, per cent of control [37]: 97%; kinase still bound, per cent of control [38]: 94%; kinase still bound, per cent of control [39]: 93%; kinase still bound, per cent of control [40]: 100% |
| CCN(CCO)CCCOc1ccc2c(Nc3cc(CC(=O)Nc4cccc(F)c4)[nH]n3)ncnc2c1 | 84 | 64 | 74 | 77 | 84 | 16 | 51 | 100 | 100 | 83 | 80 | 62 | 19 | 100 | 98 | 100 | 78 | 51 | 100 | 88 | kinase still bound, per cent of control [22]: 69%; kinase still bound, per cent of control [24]: 64%; kinase still bound, per cent of control [25]: 100%; kinase still bound, per cent of control [26]: 25%; kinase still bound, per cent of control [27]: 80%; kinase still bound, per cent of control [28]: 85%; kinase still bound, per cent of control [29]: 100%; kinase still bound, per cent of control [30]: 84%; kinase still bound, per cent of control [31]: 82%; kinase still bound, per cent of control [32]: 64%; kinase still bound, per cent of control [33]: 100%; kinase still bound, per cent of control [34]: 82%; kinase still bound, per cent of control [35]: 32%; kinase still bound, per cent of control [36]: 40%; kinase still bound, per cent of control [37]: 73%; kinase still bound, per cent of control [38]: 100%; kinase still bound, per cent of control [39]: 36%; kinase still bound, per cent of control [40]: 100% |
